Laboratory results as given in ChEMBL document CHEMBL4814005, “Pragmatic recruitment of memantine as the capping group for the design of HDAC inhibitors: A preliminary attempt to unravel the enigma of glioblastoma” (Eur J Med Chem, 2021).
pIC50: −log10 of the molar value.

What was measured:
U-87 MG [1] = assay: Antiproliferation activity against human U-87 MG cells assessed as growth inhibition at 10 uM after 3 days by MTT assay; assay type: functional, U-87MG ATCC; conditions: 72 h, time 3 day
U-87 MG [2] = assay: Cytotoxicity against human U-87 MG cells assessed as reduction in cell viability upto 72 hrs by MTT assay; assay type: functional, cell-based; conditions: U-87MG ATCC, dose microM <=30, time hrs <=72
[3] = biological target: T1, Protein deacetylase HDAC6 (Homo sapiens, UniProt Q9UBN7); assay: Inhibition of human recombinant HDAC6 expressed in baculovirus infected insect cells using [RHKK(Ac)] fluorogenic substrate
T1 sequence (Q9UBN7 whole entry): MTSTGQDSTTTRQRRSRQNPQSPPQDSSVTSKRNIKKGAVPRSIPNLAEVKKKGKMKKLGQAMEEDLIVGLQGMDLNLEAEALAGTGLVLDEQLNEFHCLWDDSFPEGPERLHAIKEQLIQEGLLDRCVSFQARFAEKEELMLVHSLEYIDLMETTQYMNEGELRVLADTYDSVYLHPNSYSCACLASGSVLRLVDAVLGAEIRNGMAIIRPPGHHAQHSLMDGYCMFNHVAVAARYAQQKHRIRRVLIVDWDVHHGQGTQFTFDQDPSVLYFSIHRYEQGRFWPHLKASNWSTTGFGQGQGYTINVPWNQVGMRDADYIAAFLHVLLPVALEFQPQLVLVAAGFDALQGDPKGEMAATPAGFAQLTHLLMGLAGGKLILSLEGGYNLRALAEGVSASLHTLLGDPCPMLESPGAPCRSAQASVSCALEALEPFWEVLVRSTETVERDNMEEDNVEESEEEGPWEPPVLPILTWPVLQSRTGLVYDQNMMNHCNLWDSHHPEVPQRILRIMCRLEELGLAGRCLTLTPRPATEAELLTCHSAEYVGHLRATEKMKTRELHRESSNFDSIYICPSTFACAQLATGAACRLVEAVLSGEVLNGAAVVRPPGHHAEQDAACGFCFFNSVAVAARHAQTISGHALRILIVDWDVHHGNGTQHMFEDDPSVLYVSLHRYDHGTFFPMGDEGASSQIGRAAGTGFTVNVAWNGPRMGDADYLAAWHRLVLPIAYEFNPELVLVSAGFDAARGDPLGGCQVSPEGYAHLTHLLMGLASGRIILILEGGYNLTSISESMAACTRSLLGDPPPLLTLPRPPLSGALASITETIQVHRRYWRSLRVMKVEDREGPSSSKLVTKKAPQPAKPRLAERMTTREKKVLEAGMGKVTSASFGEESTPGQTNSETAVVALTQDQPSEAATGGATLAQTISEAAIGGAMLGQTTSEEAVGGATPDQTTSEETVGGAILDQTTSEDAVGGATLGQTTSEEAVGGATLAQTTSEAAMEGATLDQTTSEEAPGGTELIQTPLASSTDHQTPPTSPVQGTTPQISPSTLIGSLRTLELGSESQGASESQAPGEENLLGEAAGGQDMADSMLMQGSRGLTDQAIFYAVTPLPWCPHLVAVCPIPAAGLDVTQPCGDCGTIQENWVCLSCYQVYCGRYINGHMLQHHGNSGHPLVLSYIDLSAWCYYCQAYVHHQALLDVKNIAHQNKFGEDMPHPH

U-87 MG [4] = assay: Cytotoxicity against TMZ-resistant human U-87 MG cells assessed as reduction in cell viability upto 30 uM by MTT assay; assay type: functional, cell-based; conditions: U-87MG ATCC, dose microM <=30, time hrs <=72, TDE = time-dependent effect

## CC12CC3CC(C)(C1)CC(NCc1ccc(NC(=O)CCCCCCC(=O)NO)cc1)(C3)C2
U-87 MG [1]
  inhibition at 10 µM: 90%
U-87 MG [2]
  Activity: Dose-Dependent Effect
[3]
  pIC50: 8.27
U-87 MG [4]
  Activity: Tde
